# Results from patent US20210138025A1, “CATIONIC PEPTIDES WITH IMMUNOMODULATORY AND/OR ANTI-BIOFILM ACTIVITIES” (priority 2018, published 2021).
# Non-standard residues stand in square brackets, D forms with d. No end group written: not given here. hArg = N=C(N)NCCCC[C@H](N)C(=O)O; Agb = N=C(N)NCC[C@H](N)C(=O)O; Orn = NCCC[C@H](N)C(=O)O; Dab = NCC[C@H](N)C(=O)O
# System: S. aureus (MRSA SAP0017)
# Type: cell-based, Staphylococcus aureus
# Details: SPOT synthesized control peptides, determined as in Table 5; Table 7
# Protocol: Methods of assessment of anti-biofilm activity: MRSA S. aureus strain SAP0017 biofilm formation was initially analyzed using a static abiotic solid surface assay as described elsewhere (de la Fuente-Nunez et al., 2012) and shown graphically in FIG. 2. Dilutions (1/100) of overnight cultures were incubated in BM2 biofilm-adjusted medium [62 mM potassium phosphate buffer (pH 7), 7 mM (NH4)2SO4, 2 mM MgSO4, 10 μM FeSO4, 0.4% (wt/vol) glucose, 0.5% (wt/vol) Casamino Acids], or a nutrient rich medium such as Tryptic soy broth supplemented with 1% glucose, in polypropylene microtiter plates (Falcon, United States) in the absence (control) or presence of peptide. Peptide was added at time zero (prior to adding the diluted, overnight cultures) in varying concentrations, and the amount biofilm formation was recorded after 22-46 h incubation for most bacteria. To quantify biofilm growth, planktonic cells were removed and biofilm cells adhering to the side of the wells were stained with crystal violet, and absorbance at 595 nm was measured using a microtiter plate reader (Bio-Tek Instruments Inc., United States).
row,Substance,% Biofilm Inhibition
1,C108 (VRLI[Orn]AVRIWRR-NH2; N-terminus assumed; SMILES CC[C@H](C)[C@H](NC(=O)[C@H](CC(C)C)NC(=O)[C@H](CCCNC(=N)N)NC(=O)[C@@H](N)C(C)C)C(=O)N[C@@H](CCCN)C(=O)N[C@@H](C)C(=O)N[C@H](C(=O)N[C@@H](CCCNC(=N)N)C(=O)N[C@H](C(=O)N[C@@H](Cc1c[nH]c2ccccc12)C(=O)N[C@@H](CCCNC(=N)N)C(=O)N[C@@H](CCCNC(=N)N)C(N)=O)[C@@H](C)CC)C(C)C) [Peptide C108],104%
2,C109 (VRLIVA[Orn]RIWRR-NH2; N-terminus assumed; SMILES CC[C@H](C)[C@H](NC(=O)[C@H](CCCNC(=N)N)NC(=O)[C@H](CCCN)NC(=O)[C@H](C)NC(=O)[C@@H](NC(=O)[C@@H](NC(=O)[C@H](CC(C)C)NC(=O)[C@H](CCCNC(=N)N)NC(=O)[C@@H](N)C(C)C)[C@@H](C)CC)C(C)C)C(=O)N[C@@H](Cc1c[nH]c2ccccc12)C(=O)N[C@@H](CCCNC(=N)N)C(=O)N[C@@H](CCCNC(=N)N)C(N)=O) [Peptide C109],104%
3,C110 (VRLIVAVR[Orn]WRR-NH2; N-terminus assumed; SMILES CC[C@H](C)[C@H](NC(=O)[C@H](CC(C)C)NC(=O)[C@H](CCCNC(=N)N)NC(=O)[C@@H](N)C(C)C)C(=O)N[C@H](C(=O)N[C@@H](C)C(=O)N[C@H](C(=O)N[C@@H](CCCNC(=N)N)C(=O)N[C@@H](CCCN)C(=O)N[C@@H](Cc1c[nH]c2ccccc12)C(=O)N[C@@H](CCCNC(=N)N)C(=O)N[C@@H](CCCNC(=N)N)C(N)=O)C(C)C)C(C)C) [Peptide C110],100%
4,C111 (VRLIVAVRI[Orn]RR) [Peptide C111],92%

# Same assay, conditions: SPOT synthesized peptide, ~12.5 μM, clinical MRSA strain, crystal violet assay
row,Substance,% Residual MRSA biofilm growth compared to untreated control
1,DabRLIVAVRIWRR ([Dab]RLIVAVRIWRR-NH2; N-terminus assumed; SMILES CC[C@H](C)[C@H](NC(=O)[C@H](CCCNC(=N)N)NC(=O)[C@@H](NC(=O)[C@H](C)NC(=O)[C@@H](NC(=O)[C@@H](NC(=O)[C@H](CC(C)C)NC(=O)[C@H](CCCNC(=N)N)NC(=O)[C@@H](N)CCN)[C@@H](C)CC)C(C)C)C(C)C)C(=O)N[C@@H](Cc1c[nH]c2ccccc12)C(=O)N[C@@H](CCCNC(=N)N)C(=O)N[C@@H](CCCNC(=N)N)C(N)=O) [Peptide 1018-k13],59%
2,GbutRLIVAVRIWRR ([Agb]RLIVAVRIWRR-NH2; N-terminus assumed; SMILES CC[C@H](C)[C@H](NC(=O)[C@H](CCCNC(=N)N)NC(=O)[C@@H](NC(=O)[C@H](C)NC(=O)[C@@H](NC(=O)[C@@H](NC(=O)[C@H](CC(C)C)NC(=O)[C@H](CCCNC(=N)N)NC(=O)[C@@H](N)CCNC(=N)N)[C@@H](C)CC)C(C)C)C(C)C)C(=O)N[C@@H](Cc1c[nH]c2ccccc12)C(=O)N[C@@H](CCCNC(=N)N)C(=O)N[C@@H](CCCNC(=N)N)C(N)=O) [Peptide 1018-r13],47%
3,HarRLIVAVRIWRR ([hArg]RLIVAVRIWRR-NH2; N-terminus assumed; SMILES CC[C@H](C)[C@H](NC(=O)[C@H](CCCNC(=N)N)NC(=O)[C@@H](NC(=O)[C@H](C)NC(=O)[C@@H](NC(=O)[C@@H](NC(=O)[C@H](CC(C)C)NC(=O)[C@H](CCCNC(=N)N)NC(=O)[C@@H](N)CCCCNC(=N)N)[C@@H](C)CC)C(C)C)C(C)C)C(=O)N[C@@H](Cc1c[nH]c2ccccc12)C(=O)N[C@@H](CCCNC(=N)N)C(=O)N[C@@H](CCCNC(=N)N)C(N)=O) [Peptide 1018-r25],64%
4,IVKWIAQWKLVG (IVKWIAQWKLVG-NH2) [Imax-10],100%
5,KKQKKIWRRILV (KKQKKIWRRILV-NH2) [Mmax-16],105%
6,OrnRLIVAVRIWRR ([Orn]RLIVAVRIWRR-NH2; N-terminus assumed; SMILES CC[C@H](C)[C@H](NC(=O)[C@H](CCCNC(=N)N)NC(=O)[C@@H](NC(=O)[C@H](C)NC(=O)[C@@H](NC(=O)[C@@H](NC(=O)[C@H](CC(C)C)NC(=O)[C@H](CCCNC(=N)N)NC(=O)[C@@H](N)CCCN)[C@@H](C)CC)C(C)C)C(C)C)C(=O)N[C@@H](Cc1c[nH]c2ccccc12)C(=O)N[C@@H](CCCNC(=N)N)C(=O)N[C@@H](CCCNC(=N)N)C(N)=O) [Peptide 1018-k25],44%
7,RQVRVKRWRARW (RQVRVKRWRARW-NH2) [Mmax-18],100%
8,VKGAIKRGIWVK (VKGAIKRGIWVK-NH2) [Imax-5],99%
9,VOrnLIVAVRIWRR (V[Orn]LIVAVRIWRR-NH2; N-terminus assumed; SMILES CC[C@H](C)[C@H](NC(=O)[C@H](CCCNC(=N)N)NC(=O)[C@@H](NC(=O)[C@H](C)NC(=O)[C@@H](NC(=O)[C@@H](NC(=O)[C@H](CC(C)C)NC(=O)[C@H](CCCN)NC(=O)[C@@H](N)C(C)C)[C@@H](C)CC)C(C)C)C(C)C)C(=O)N[C@@H](Cc1c[nH]c2ccccc12)C(=O)N[C@@H](CCCNC(=N)N)C(=O)N[C@@H](CCCNC(=N)N)C(N)=O) [Peptide 1018-k26],63%
10,VRLIVAVHarIWRR (VRLIVAV[hArg]IWRR-NH2; N-terminus assumed; SMILES CC[C@H](C)[C@H](NC(=O)[C@H](CCCCNC(=N)N)NC(=O)[C@@H](NC(=O)[C@H](C)NC(=O)[C@@H](NC(=O)[C@@H](NC(=O)[C@H](CC(C)C)NC(=O)[C@H](CCCNC(=N)N)NC(=O)[C@@H](N)C(C)C)[C@@H](C)CC)C(C)C)C(C)C)C(=O)N[C@@H](Cc1c[nH]c2ccccc12)C(=O)N[C@@H](CCCNC(=N)N)C(=O)N[C@@H](CCCNC(=N)N)C(N)=O) [Peptide 1018-r32],45%
11,VRLIVAVOrnIWRR (VRLIVAV[Orn]IWRR-NH2; N-terminus assumed; SMILES CC[C@H](C)[C@H](NC(=O)[C@H](CCCN)NC(=O)[C@@H](NC(=O)[C@H](C)NC(=O)[C@@H](NC(=O)[C@@H](NC(=O)[C@H](CC(C)C)NC(=O)[C@H](CCCNC(=N)N)NC(=O)[C@@H](N)C(C)C)[C@@H](C)CC)C(C)C)C(C)C)C(=O)N[C@@H](Cc1c[nH]c2ccccc12)C(=O)N[C@@H](CCCNC(=N)N)C(=O)N[C@@H](CCCNC(=N)N)C(N)=O) [Peptide 1018-k32],46%
12,VRLIVAVRIWHarR (VRLIVAVRIW[hArg]R-NH2; N-terminus assumed; SMILES CC[C@H](C)[C@H](NC(=O)[C@H](CCCNC(=N)N)NC(=O)[C@@H](NC(=O)[C@H](C)NC(=O)[C@@H](NC(=O)[C@@H](NC(=O)[C@H](CC(C)C)NC(=O)[C@H](CCCNC(=N)N)NC(=O)[C@@H](N)C(C)C)[C@@H](C)CC)C(C)C)C(C)C)C(=O)N[C@@H](Cc1c[nH]c2ccccc12)C(=O)N[C@@H](CCCCNC(=N)N)C(=O)N[C@@H](CCCNC(=N)N)C(N)=O) [Peptide 1018-r35],33%
13,VRLIVAVRIWOrnR (VRLIVAVRIW[Orn]R-NH2; N-terminus assumed; SMILES CC[C@H](C)[C@H](NC(=O)[C@H](CCCNC(=N)N)NC(=O)[C@@H](NC(=O)[C@H](C)NC(=O)[C@@H](NC(=O)[C@@H](NC(=O)[C@H](CC(C)C)NC(=O)[C@H](CCCNC(=N)N)NC(=O)[C@@H](N)C(C)C)[C@@H](C)CC)C(C)C)C(C)C)C(=O)N[C@@H](Cc1c[nH]c2ccccc12)C(=O)N[C@@H](CCCN)C(=O)N[C@@H](CCCNC(=N)N)C(N)=O) [Peptide 1018-k35],34%
14,VRLIVAVRIWRHar (VRLIVAVRIWR[hArg]-NH2; N-terminus assumed; SMILES CC[C@H](C)[C@H](NC(=O)[C@H](CCCNC(=N)N)NC(=O)[C@@H](NC(=O)[C@H](C)NC(=O)[C@@H](NC(=O)[C@@H](NC(=O)[C@H](CC(C)C)NC(=O)[C@H](CCCNC(=N)N)NC(=O)[C@@H](N)C(C)C)[C@@H](C)CC)C(C)C)C(C)C)C(=O)N[C@@H](Cc1c[nH]c2ccccc12)C(=O)N[C@@H](CCCNC(=N)N)C(=O)N[C@@H](CCCCNC(=N)N)C(N)=O) [Peptide 1018-r36],27%
15,VRLIVAVRIWROrn (VRLIVAVRIWR[Orn]-NH2; N-terminus assumed; SMILES CC[C@H](C)[C@H](NC(=O)[C@H](CCCNC(=N)N)NC(=O)[C@@H](NC(=O)[C@H](C)NC(=O)[C@@H](NC(=O)[C@@H](NC(=O)[C@H](CC(C)C)NC(=O)[C@H](CCCNC(=N)N)NC(=O)[C@@H](N)C(C)C)[C@@H](C)CC)C(C)C)C(C)C)C(=O)N[C@@H](Cc1c[nH]c2ccccc12)C(=O)N[C@@H](CCCNC(=N)N)C(=O)N[C@@H](CCCN)C(N)=O) [Peptide 1018-k36],20%
16,VRLIVHarVRIWRR (VRLIV[hArg]VRIWRR-NH2; N-terminus assumed; SMILES CC[C@H](C)[C@H](NC(=O)[C@H](CCCNC(=N)N)NC(=O)[C@@H](NC(=O)[C@H](CCCCNC(=N)N)NC(=O)[C@@H](NC(=O)[C@@H](NC(=O)[C@H](CC(C)C)NC(=O)[C@H](CCCNC(=N)N)NC(=O)[C@@H](N)C(C)C)[C@@H](C)CC)C(C)C)C(C)C)C(=O)N[C@@H](Cc1c[nH]c2ccccc12)C(=O)N[C@@H](CCCNC(=N)N)C(=O)N[C@@H](CCCNC(=N)N)C(N)=O) [Peptide 1018-r30],57%
